{"source": "patent US20140135270A1", "about": "“MACROCYCLIC COMPOUNDS FOR INHIBITION OF INHIBITORS OF APOPTOSIS” (Ensemble Therapeutics Corp., priority 2012, published 2014)", "settings": "the molecule shown is the open-chain precursor, rcm bond, 38-membered ring, DCE, 70.0 °C", "note": "Where two headings read alike, the source gives them in different places."}
{"substance": "(S)-2-((S)-2-((2S,4S)-4-(4-((4-((S)-2-((S)-2-((2S,4S)-4-Allyl-1-((S)-2-4S)-2-((tert-butoxycarbonyl)(methyl)amino)propanamido)-3,3-dimethylbutanoyl)pyrrolidine-2-carboxamido)-3-(naphthalen-2-yl)propanamido)-3-(methylsulfonamido)-3-oxopropyl)phenoxy)methyl)-1H-1,2,3-triazol-1-yl)-1-((S)-2-((S)-2-((tert-butoxycarbonyl)(methyl)amino)propanamido)-3,3-dimethylbutanoyl)pyrrolidine-2-carboxamido)-3-(naphthalen-2-yl)propanamido)-3-(4-(allyloxy)phenyl)propanoic acid", "values": [{"measurement": "ring closure, yield after HPLC", "setting": "Grubbs II (2 portions), 2.9 mM", "value": 49, "unit": "%"}]}
{"substance": "(S)-tert-Butyl 2-((S)-2-((2S,4S)-4-(4-((4-((S)-2-((S)-2-((2S,4S)-4-allyl-1-((S)-2-((S)-2-((tert-butoxycarbonyl)(methyl)amino)propanamido)-3,3-dimethylbutanoyl)pyrrolidine-2-carboxamido)-3-(naphthalen-2-yl)propanamido)-3-(cyclopropanesulfonamido)-3-oxopropyl)phenoxy)methyl)-1H-1,2,3-triazol-1-yl)-1-((S)-2-((S)-2-((tert-butoxycarbonyl)(methyl)amino)propanamido)-3,3-dimethylbutanoyl)pyrrolidine-2-carboxamido)-3-(naphthalen-2-yl)propanamido)-3-(4-(allyloxy)phenyl)propanoate", "values": [{"measurement": "ring closure, yield after HPLC", "setting": "Hoveyda-Grubbs II (10 mol%), 3.5 mM", "value": 75, "unit": "%"}]}
{"substance": "(S)-tert-Butyl 2-((S)-2-((2S,4S)-4-allyl-1-((S)-2-((S)-2-((tert-butoxycarbonyl)(methyl)amino)propanamido)-3,3-dimethylbutanoyl)pyrrolidine-2-carboxamido)-3-(naphthalen-2-yl)propanamido)-3-(4-((1-((3S,5S)-5-(((S)-1-(((S)-2-(4-(allyloxy)phenyl)-1-(5-oxo-4,5-dihydro-1,3,4-oxadiazol-2-yl)ethyl)amino)-3-(naphthalen-2-yl)-1-oxopropan-2-yl)carbamoyl)-1-((S)-2-((S)-2-((tert-butoxycarbonyl)(methyl)amino)propanamido)-3,3-dimethylbutanoyl)pyrrolidin-3-yl)-1H-1,2,3-triazol-4-yl)methoxy)phenyl)propanoate", "values": [{"measurement": "ring closure, yield after HPLC", "setting": "Hoveyda-Grubbs II (10 mol%), 5.2 mM", "value": 52, "unit": "%"}]}
